Results: paper PMC4413193, “3-[4-(1H-Indol-3-yl)-1,3-thiazol-2-yl]-1H-pyrrolo[2,3-b]pyridines, Nortopsentin Analogues with Antiproliferative Activity” (Marine Drugs, 2015)
Entries after “also recorded” stand apart in the source; their conditions may differ.

How the values were obtained:
Assay type in all cases: cell-based
[1] = system: CCRF-CEM; assay: NCI-60 in vitro tumor cell growth inhibition, CCRF-CEM (leukemia); settings: Homo sapiens, five concentration levels 10^−4–10^−8 M
Experimental: (§1) All the synthesized thiazoles 3a–k were evaluated by the National Cancer Institute (Bethesda MD) for cytotoxicity against the NCI-60 cell line panel using standard protocols. Initially, the selected derivatives 3c,d,g,h,j,k were tested at a single dose (10^−5 M) on the full panel of approximately 60 human tumor cell lines derived from 9 human cancer cell types, that have been grouped in disease sub-panels including leukemia, non-small-cell lung, colon, central nervous system (CNS), melanoma, ovarian, renal, prostate and breast cancers (data not shown). Compounds 3d and 3k were further selected for full evaluation at five concentration levels (10^−4–10^−8 M).
(§2) The antitumor activity of compounds 3d and 3k was given by three parameters for each cell line: GI50 (the molar concentration of the compound that inhibits 50% net cell growth), TGI (the molar concentration of the compound leading to total inhibition of net cell growth), and LC50 (the molar concentration of the compound that induces 50% net cell death). The average values of mean graph midpoint (MG_MID) were calculated for each of these parameters.

[2] = system: IGROV1; assay: NCI-60 in vitro tumor cell growth inhibition, IGROV1 (ovarian cancer); settings: Homo sapiens, IGROV-1, five concentration levels
Experimental: as §1, §2

[3] = system: human HepG2 hepatocarcinoma cells; assay: MTT cell growth assay, HepG2; settings: 72 h, 0.1–10 μM
Experimental: Cell growth inhibitory activity of compounds 3d and 3k was also investigated on human HepG2 hepatocarcinoma cells, a cell line not included in the NCI panel and of interest in the drug discovery because provided with a very active microsomal system for detoxification of xenobiotics. Monolayer cultures treated for 72 h with 0.1–10 μM concentrations of the compounds were examined by 3-(4,5-dimethylthiazol-2-yl)-2,5-diphenyltetrazolium bromide (MTT) assay for cell growth.
Human cell lines of hepatoma HepG2 and Chang liver were purchased from American Type Culture Collection, Rockville, MD, USA. Cells were grown in RPMI supplemented with 2 mM L-glutamine, 10% FBS, 100 U/mL penicillin, 100 μg/mL streptomycin and 5 μg/mL gentamicin. HepG2 culture medium also contained 1.0 mM sodium pyruvate. Cells were maintained in log phase by seeding twice a week at a density of 3 × 10^8 cells/L in humidified 5% CO2 atmosphere, at 37 °C. […] Cytotoxic activity of the compounds was determined by the MTT quantitative colorimetric assay based on the reduction of the 3-(4,5-dimethyl-2-thiazolyl)-2,5-diphenyl-2H-tetrazolium bromide (MTT) into purple formazan by mitochondrial dehydrogenases of living cells. […] The absorbance at 540 nm was measured in a microplate reader (Bio-RAD, Hercules, CA, USA). […]

[4] = system: NCI-H322M; assay: NCI-60 in vitro tumor cell growth inhibition, NCI-H322M (non-small cell lung cancer); settings: Homo sapiens, five concentration levels
Experimental: as §1, §2

[5] = system: TK-10; assay: NCI-60 in vitro tumor cell growth inhibition, TK-10 (renal cancer); settings: Homo sapiens, five concentration levels
Experimental: as §1, §2

[6] = system: normal immortalized human liver cells (Chang); assay: MTT viability assay, Chang liver cells; settings: identical conditions to HepG2 (72 h, 0.1–10 μM)
Experimental: Cell growth inhibitory activity of compounds 3d and 3k was also investigated on human HepG2 hepatocarcinoma cells, a cell line not included in the NCI panel and of interest in the drug discovery because provided with a very active microsomal system for detoxification of xenobiotics. Monolayer cultures treated for 72 h with 0.1–10 μM concentrations of the compounds were examined by 3-(4,5-dimethylthiazol-2-yl)-2,5-diphenyltetrazolium bromide (MTT) assay for cell growth. […] Human cell lines of hepatoma HepG2 and Chang liver were purchased from American Type Culture Collection, Rockville, MD, USA. Cells were grown in RPMI supplemented with 2 mM L-glutamine, 10% FBS, 100 U/mL penicillin, 100 μg/mL streptomycin and 5 μg/mL gentamicin. HepG2 culture medium also contained 1.0 mM sodium pyruvate. Cells were maintained in log phase by seeding twice a week at a density of 3 × 10^8 cells/L in humidified 5% CO2 atmosphere, at 37 °C. In all experiments, cells were made quiescent through overnight incubation before the treatment with the compounds or vehicle alone (control cells). No differences were found between cells treated with DMSO 0.1% and untreated cells in terms of cell number and viability. […] Briefly, HepG2 and Chang cells were plated at 5 × 10^4 cells/well in 96-well plates containing 200 μL RPMI. […] The absorbance at 540 nm was measured in a microplate reader (Bio-RAD, Hercules, CA, USA). […]

[7] = system: SNB-19; assay: NCI-60 in vitro tumor cell growth inhibition, SNB-19 (CNS cancer); settings: Homo sapiens, five concentration levels
Experimental: as §1, §2

[8] = system: HOP-62; assay: NCI-60 in vitro tumor cell growth inhibition, HOP-62 (non-small cell lung cancer); settings: Homo sapiens, five concentration levels
Experimental: as §1, §2

[9] = system: NCI-H522; assay: NCI-60 in vitro tumor cell growth inhibition, NCI-H522 (non-small cell lung cancer); settings: Homo sapiens, five concentration levels
Experimental: as §1, §2

| Compound | GI50 [1] | GI50 [2] | GI50 [3] | GI50 [4] | GI50 [5] | viability of normal immortalized human liver cells (Chang) [6] | GI50 [7] | GI50 [8] | GI50 [9] |
| --- | --- | --- | --- | --- | --- | --- | --- | --- | --- |
| Cn1cc(-c2csc(-c3cn(C)c4ncccc34)n2)c2ccccc21 [Compound 3d, 1-Methyl-3-[4-(1-methyl-1H-indol-3-yl)-1,3-thiazol-2-yl]-1H-pyrrolo[2,3-b]pyridine] | 400 nM | 1330 nM | 1690 nM | 760 nM | 600 nM | did not affect normal immortalized human liver cells (Chang); also recorded: did not substantially impaired viability | 630 nM | 810 nM | 40 nM |
| Cn1cc(-c2nc(-c3c[nH]c4ccccc34)cs2)c2cccnc21 [Compound 3k, 3-[4-(1H-Indol-3-yl)-1,3-thiazol-2-yl]-1-methyl-1H-pyrrolo[2,3-b]pyridine] | 430 nM | 1180 nM | 210 nM | – | 990 nM | did not affect normal immortalized human liver cells (Chang); also recorded: did not substantially impaired viability | 640 nM | 930 nM | 50 nM |
